Measured values from patent US4634663A, “Method and reagent for quantitative determination of N-acetylhexosamine” (Noda Institute for Scientific Research, priority 1983, dated 1987).

Experiments:
Format in all cases: biochemical, Pseudomonas sp. No. 15-1
[1] = test system: N-acetylhexosamine oxidase; assay: Activity inhibition of the enzyme by metallic ions or inhibitors
[2] = test system: N-acetylhexosamine oxidase; assay: as above; details: for Residual activity (%): tris-hydrochloric acid buffer solution of pH 7.5, 1.8mM metallic ion or inhibitor; for Inhibition of enzyme activity (in words): tris-hydrochloric acid buffer pH 7.5, 1.8mM
Protocol: The activity of the present enzyme was measured in various solutions each comprising a tris-hydrochloric acid buffer solution of pH 7.5 and 1.8mM metallic ion or inhibitor.

[3] = test system: N-acetylhexosamine oxidase; assay: Action and specificity for substrate; details: in the presence of oxygen
Text: As shown in the following reaction formula, the present enzyme oxidizes N-acetylhexosamine in the presence of oxygen to form N-acetylhexosaminic acid and hydrogen peroxide.

[4] = test system: N-acetylhexosamine oxidase; assay: Activity stabilization by bovine serum albumin during heat treatment; details: 1 mg/ml bovine serum albumin, potassium phosphate buffer pH 6.8, 10 minutes heat treatment
Protocol: Further, in 10 minutes heat treatment at 45° C., the present enzyme is stable between pH 3 and pH 9 and loses its activity rapidly at a more acidic region and slowly at a more alkaline region. In this experiment, the hydrogen peroxide method was adopted, and the residual activity of the present enzyme subjected to 10 minutes heat treatment in a potassium phosphate buffer solution of pH 6.8 at each temperature was compared with the residual activity of the same enzyme subjected to the same treatment in a potassium phosphate buffer solution of pH 6.8 containing 1 mg/ml of bovine serum albumin.

Row | Molecule | Residual activity (%) [2] [%] | other results
1 | Oc1cccc2cccnc12 [8-Hydroxyquinoline] | – | Residual activity (%) ([1]; pH 7.5): 102%
2 | O=[N+]([O-])[O-].[Ag+] [AgNO3] | – | Residual activity (%) ([1]; Phosphate buffer solution, 1.8mM): 5%
3 | [Ca+2].[Cl-].[Cl-] [CaCl2] | 91 | –
4 | O=S(=O)([O-])[O-].[Co+2] [CoSO4] | 75 | –
5 | O=S(=O)([O-])[O-].[Cu+2] [CuSO4] | 74 | –
6 | O=C([O-])CN(CCN(CC(=O)[O-])CC(=O)[O-])CC(=O)[O-].[Na+].[Na+].[Na+].[Na+] [EDTA, Ethylenediaminetetraacetic acid sodium salt] | – | Residual activity (%) ([1]; pH 7.5): 87%
7 | O=C(O)CF [FCH2 COONa] | 107 | –
8 | O=S(=O)([O-])[O-].[Fe+2] [FeSO4] | 15 | Inhibition of enzyme activity (in words) [2]: inhibited greatly
9 | NC(=O)CI [ICH2 CONH2] | 90 | –
10 | O=S(=O)([O-])[O-].[Mg+2] [MgSO4] | 86 | –
11 | O=S(=O)([O-])[O-].[Mn+2] [MnSO4] | 84 | –
12 | CC(=O)N[C@H]1[C@H]([C@H](O)[C@H](O)CO)OC(O)(C(=O)O)C[C@@H]1O (stereo partly drawn) [N-acetylneuraminic acid] | – | Action of the enzyme on substrate [3]: hardly acts or does not at all act
13 | [N-]=[N+]=[N-].[Na+] [NaN3] | 103 | –
14 | O=S(=O)([O-])[O-].[Ni+2] [NiSO4] | 64 | Inhibition of enzyme activity (in words) [2]: considerably
15 | O=C(O)c1cc[c]([Hg][Cl])cc1 [PCMB, pChloromercurybenzoate] | 67 | –
16 | CC(=O)[O-].CC(=O)[O-].[Pb+2] [Pb(CH3 COO)2] | 42 | Inhibition of enzyme activity (in words) [2]: considerably
17 | CCCCCCCCCCCCOS(=O)(=O)[O-].[Na+] [SDS, Sodium dodecylsulfate] | 87 | –
18 | O=S(=O)([O-])[O-].[Zn+2] [ZnSO4] | 2 | Inhibition of enzyme activity (in words) [2]: inhibited greatly
19 | c1cnc2c(c1)ccc1cccnc12 [o'-Phenanthroline] | 81 | –
20 | c1ccc(-c2ccccn2)nc1 [α,α'-Dipyridyl] | 106 | –
21 | HgCl2 | 17 | Inhibition of enzyme activity (in words) [2]: inhibited greatly
22 | bovine serum albumin: bovine serum albumin added at 1 mg/ml as stabilizer of the enzyme | – | Effect on enzyme activity on heat treatment [4]: stabilized and moreover slightly enhanced
